In PubChem BioAssay AID330 (DTP/NCI, 2004):
Values joined by “and” are separate entries in the source; they are usually repeats but may differ in a detail not shown here. Equal values may be shown once. Inconclusive results and toxic doses are left out.

Tested on: P388 leukemia ip, CD2F1 mice, survival T/C
Assay: NCI In Vivo Anticancer Drug Screen. Data for tumor model P388 Leukemia (intraperitoneal) in CD2F1 (CDF1) mice
Conditions: endpoint: median survival time, higher = longer survival
Outline: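 Mice carrying the transplanted tumor received test compound or vehicle. Survival was recorded in each group, and the value is the treated-group measurement divided by that of the vehicle-treated control group.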

[1] = dose: 25.0 mg/kg/injection, schedule: Q01DX009 (ip), vehicle: saline
[2] = dose: 50.0 mg/kg/injection, schedule: Q01DX009 (ip), vehicle: saline with Tween-80
[3] = dose: 50.0 mg/kg/injection, schedule: Q01DX009 (ip), vehicle: saline
[4] = dose: 100.0 mg/kg/injection, schedule: Q01DX009 (ip), vehicle: saline with Tween-80
[5] = dose: 100.0 mg/kg/injection, schedule: Q01DX009 (ip), vehicle: saline
[6] = dose: 200.0 mg/kg/injection, schedule: Q01DX009 (ip), vehicle: saline with Tween-80
[7] = dose: 400.0 mg/kg/injection, schedule: Q01DX009 (ip), vehicle: saline with Tween-80
[8] = dose: 25.0 mg/kg/injection, schedule: Q01DX009 (ip), vehicle: Klucel (hydroxypropylcellulose) (HPC)
[9] = dose: 50.0 mg/kg/injection, schedule: Q01DX009 (ip), vehicle: Klucel (hydroxypropylcellulose) (HPC)
[10] = dose: 100.0 mg/kg/injection, schedule: Q01DX009 (ip), vehicle: Klucel (hydroxypropylcellulose) (HPC)
[11] = dose: 200.0 mg/kg/injection, schedule: Q01DX009 (ip), vehicle: Klucel (hydroxypropylcellulose) (HPC)
[12] = dose: 50.0 mg/kg/injection, schedule: Q01DX005 (ip), vehicle: saline with Tween-80
[13] = dose: 100.0 mg/kg/injection, schedule: Q01DX005 (ip), vehicle: saline with Tween-80
[14] = dose: 200.0 mg/kg/injection, schedule: Q01DX005 (ip), vehicle: saline with Tween-80
[15] = dose: 50.0 mg/kg/injection, schedule: Q01DX005 (ip), vehicle: Klucel (hydroxypropylcellulose) (HPC)
[16] = dose: 100.0 mg/kg/injection, schedule: Q01DX005 (ip), vehicle: Klucel (hydroxypropylcellulose) (HPC)
[17] = dose: 200.0 mg/kg/injection, schedule: Q01DX005 (ip), vehicle: Klucel (hydroxypropylcellulose) (HPC)

In the case of `CCC(=O)Oc1ccc[nH]c1=O`, the T/C (dose: 25.0 mg/kg/injection, schedule: Q01DX009 (ip), vehicle: saline with Tween-80) is reported as 101 % of control, the T/C [1] is reported as 105 % of control and 92 % of control and the T/C [2] is reported as 100 % of control. The T/C [3] was 100 % of control and 110 % of control, the T/C [4] was 100 % of control and the T/C [5] was 103 % of control and 94 % of control. The T/C [6] was 112 % of control and 121 % of control, the T/C (dose: 300.0 mg/kg/injection, schedule: Q01DX009 (ip), vehicle: saline) was 115 % of control and 116 % of control and the T/C (dose: 400.0 mg/kg/injection, schedule: Q01DX009 (ip), vehicle: Klucel (hydroxypropylcellulose) (HPC)) was 123 % of control. The T/C [7] was 122 % of control, the T/C (dose: 500.0 mg/kg/injection, schedule: Q01DX009 (ip), vehicle: Klucel (hydroxypropylcellulose) (HPC)) was 154 % of control and the T/C (dose: 600.0 mg/kg/injection, schedule: Q01DX009 (ip), vehicle: saline with Tween-80) was 122 % of control. For the same compound, the T/C (dose: 600.0 mg/kg/injection, schedule: Q01DX009 (ip), vehicle: saline) was 124 % of control.
`FC(F)(F)c1nnc(-c2ccc3ccccc3c2)nn1` was tested, and the T/C (dose: 12.5 mg/kg/injection, schedule: Q01DX009 (ip), vehicle: Klucel (hydroxypropylcellulose) (HPC)) was 104 % of control, the T/C [8] was 103 % of control and the T/C [9] was 103 % of control and 122 % of control. The T/C [10] was 105 % of control and 97 % of control and the T/C [11] was 100 % of control.
In the case of `COC(=O)/C=C/c1cccc[n+]1[O-]`, the T/C (dose: 25.0 mg/kg/injection, schedule: Q01DX005 (ip), vehicle: water) is reported as 107 % of control, the T/C (dose: 50.0 mg/kg/injection, schedule: Q01DX005 (ip), vehicle: water) is reported as 107 % of control and the T/C (dose: 100.0 mg/kg/injection, schedule: Q01DX005 (ip), vehicle: water) is reported as 109 % of control. The T/C (dose: 200.0 mg/kg/injection, schedule: Q01DX005 (ip), vehicle: water) was 107 % of control.
`O=C(NCCCl)Nc1[nH]c(=O)ncc1Cl` was tested, and the T/C (dose: 60.0 mg/kg/injection, schedule: Q01DX005 (ip), vehicle: saline with Tween-80) was 103 % of control, the T/C (dose: 120.0 mg/kg/injection, schedule: Q01DX005 (ip), vehicle: saline with Tween-80) was 100 % of control and the T/C (dose: 240.0 mg/kg/injection, schedule: Q01DX005 (ip), vehicle: saline with Tween-80) was 101 % of control.
With `Nc1ccc(NC(=O)c2cc(Cl)cc(Cl)c2O)c(Cl)c1` the T/C [2] was 107 % of control and the T/C [4] was 114 % of control.
With `O=[N+]([O-])c1ccc(/C=N\Nc2ccc([N+](=O)[O-])cn2)cc1` the T/C [5] was 100 % of control, the T/C (dose: 100.0 mg/kg/injection, schedule: Q04DX003 (ip), vehicle: saline with Tween-80) was 90 % of control and the T/C (dose: 200.0 mg/kg/injection, schedule: Q01DX009 (ip), vehicle: saline) was 115 % of control. For the same compound, the T/C (dose: 200.0 mg/kg/injection, schedule: Q04DX003 (ip), vehicle: saline with Tween-80) was 104 % of control, the T/C (dose: 400.0 mg/kg/injection, schedule: Q01DX009 (ip), vehicle: saline) was 105 % of control and the T/C (dose: 400.0 mg/kg/injection, schedule: Q04DX003 (ip), vehicle: saline with Tween-80) was 109 % of control.
`O=c1c2ccccc2nc(CN(CCCl)CCCl)n1-c1ccc(O)c(CN(CCCl)CCCl)c1` was tested, and the T/C (dose: 100.0 mg/kg/injection, schedule: Q01DX001 (ip), vehicle: saline with Tween-80) was 151 % of control, the T/C (dose: 200.0 mg/kg/injection, schedule: Q01DX001 (ip), vehicle: saline with Tween-80) was 155 % of control and the T/C (dose: 400.0 mg/kg/injection, schedule: Q01DX001 (ip), vehicle: saline with Tween-80) was 270 % of control.
For `CC1(C)Cc2nc3ccccc3nc2-c2ccccc21`, the T/C [12] was 101 % of control, the T/C [13] was 98 % of control and the T/C [14] was 100 % of control.
`COc1ccccc1NC(N)=S` was tested, and the T/C [8] was 96 % of control, the T/C [9] was 98 % of control and the T/C [10] was 96 % of control. For the same compound, the T/C [11] was 97 % of control.
For `COc1ccc(N=NC2C(=O)N(C(=O)c3ccncc3)N=C2C)cc1` (stereo not drawn), the T/C [2] was 95 % of control, the T/C [4] was 95 % of control and the T/C [6] was 96 % of control.
In the case of `Cc1ccc(N2CC=C(c3ccccc3)OP2(=O)N2CC2)cc1` (stereo not drawn), the T/C [15] is reported as 101 % of control, the T/C [16] is reported as 101 % of control and the T/C [17] is reported as 94 % of control.
`O=C(NC(Cc1ccc(Cl)cc1)C(=O)O)c1cccc(Br)c1` (stereo not drawn) was tested, and the T/C [15] was 102 % of control, the T/C [16] was 100 % of control and the T/C [17] was 110 % of control.
`CC1CCCN2C(=O)CN(Cc3ccccc3)CC(=O)N12` (stereo not drawn) was tested, and the T/C [12] was 100 % of control, the T/C [13] was 100 % of control and the T/C [14] was 100 % of control.
For `CCO/C=C1\SC(=S)N(c2cccc(OC)c2)C1=O`, the T/C [4] was 118 % of control, the T/C (dose: 117.0 mg/kg/injection, schedule: Q04DX003 (ip), vehicle: saline with Tween-80) was 113 % of control and the T/C (dose: 178.0 mg/kg/injection, schedule: Q04DX003 (ip), vehicle: saline with Tween-80) was 118 % of control. For the same compound, the T/C [6] was 118 % of control and the T/C (dose: 266.0 mg/kg/injection, schedule: Q04DX003 (ip), vehicle: saline with Tween-80) was 109 % of control.
With `CN(CCCCCC(=O)O)c1ccncc1` the T/C (dose: 50.0 mg/kg/injection, schedule: Q01DX005 (ip), vehicle: saline) was 103 % of control, the T/C (dose: 100.0 mg/kg/injection, schedule: Q01DX005 (ip), vehicle: saline) was 100 % of control and the T/C (dose: 200.0 mg/kg/injection, schedule: Q01DX005 (ip), vehicle: saline) was 108 % of control.
For `CCC12Nc3ccccc3C(CC)(C1=O)C(c1ccccc1)=C2c1ccccc1` (stereo not drawn), the T/C [9] was 115 % of control, the T/C [10] was 106 % of control and the T/C [11] was 115 % of control.
For `COc1cc2c(cc1OC)C(Cc1ccc3cc(OC)c(OC)cc3c1)=NCC2`, the T/C [4] was 90 % of control, the T/C [6] was 90 % of control and the T/C [7] was 100 % of control.
With `COc1cc(C2=N/C(=C\c3ccccc3O)C(=O)O2)cc(OC)c1OC` the T/C [1] was 94 % of control, the T/C [3] was 94 % of control and the T/C [5] was 91 % of control.
With `O=C(O)c1cc2cccc(OCc3ccc(Cl)cc3Cl)c2cc1O` the T/C (dose: 100.0 mg/kg/injection, schedule: Q04DX002 (ip), vehicle: Klucel (hydroxypropylcellulose) (HPC)) was 115 % of control, the T/C (dose: 200.0 mg/kg/injection, schedule: Q04DX002 (ip), vehicle: Klucel (hydroxypropylcellulose) (HPC)) was 106 % of control and the T/C (dose: 400.0 mg/kg/injection, schedule: Q04DX002 (ip), vehicle: Klucel (hydroxypropylcellulose) (HPC)) was 103 % of control.
With `c1ccc([P+](CCN2Cc3ccccc3C2)(c2ccccc2)c2ccccc2)cc1` the T/C (dose: 0.78 mg/kg/injection, schedule: Q01DX009 (ip), vehicle: other) was 119 % of control, the T/C (dose: 0.78 mg/kg/injection, schedule: Q01DX009 (ip), vehicle: saline) was 101 % of control and the T/C (dose: 1.56 mg/kg/injection, schedule: Q01DX009 (ip), vehicle: other) was 110 % of control. For the same compound, the T/C (dose: 1.56 mg/kg/injection, schedule: Q01DX009 (ip), vehicle: saline) was 101 % of control, the T/C (dose: 3.12 mg/kg/injection, schedule: Q01DX009 (ip), vehicle: saline) was 107 % of control and the T/C (dose: 3.13 mg/kg/injection, schedule: Q01DX009 (ip), vehicle: other) was 114 % of control. The T/C (dose: 3.13 mg/kg/injection, schedule: Q01DX009 (ip), vehicle: saline) was 105 % of control, the T/C (dose: 6.25 mg/kg/injection, schedule: Q01DX009 (ip), vehicle: other) was 118 % of control and the T/C (dose: 6.25 mg/kg/injection, schedule: Q01DX009 (ip), vehicle: saline) was 109 % of control and 119 % of control. The T/C (dose: 12.5 mg/kg/injection, schedule: Q01DX009 (ip), vehicle: other) was 108 % of control, the T/C (dose: 12.5 mg/kg/injection, schedule: Q01DX009 (ip), vehicle: saline) was 120 % of control and 122 % of control and the T/C (dose: 25.0 mg/kg/injection, schedule: Q01DX009 (ip), vehicle: other) was 88 % of control.
`CC(=O)OCC(OC(C)=O)C(OC(C)=O)C(OC1OC(COC(C)=O)C(OC(C)=O)C(OC(C)=O)C1OC(C)=O)C(COC(C)=O)OC(C)=O` (stereo not drawn) was tested, and the T/C (dose: 50.0 mg/kg/injection, schedule: Q01DX005 (ip), vehicle: suspension in saline) was 97 % of control, the T/C (dose: 100.0 mg/kg/injection, schedule: Q01DX005 (ip), vehicle: suspension in saline) was 91 % of control and the T/C (dose: 200.0 mg/kg/injection, schedule: Q01DX005 (ip), vehicle: suspension in saline) was 99 % of control.
`N#Cc1ccccc1CC(O)(c1ccccc1)c1ccccc1` was tested, and the T/C [4] was 99 % of control, the T/C [6] was 100 % of control and the T/C [7] was 91 % of control.
